Test results reported in the NIST ThermoML archive (doi:10.1016/j.fluid.2008.03.004).
± gives the expanded uncertainty stated by the source.

Assay: xn = mol fraction of the nth substance listed
Conditions: 101 kPa, Liquid; for speed of sound: Sing-around technique in a fixed-path interferometer

COC(C)(C)C [2-methoxy-2-methylpropane] + Cc1ccc(C)cc1
Conditions | mass density, 305.65 K [kg/m3] | mass density, 308.15 K [kg/m3] | mass density, 310.65 K [kg/m3] | mass density, 313.15 K [kg/m3] | speed of sound, 308.15 K [m/s] | speed of sound, 310.65 K [m/s] | speed of sound, 313.15 K [m/s] | speed of sound, 315.65 K [m/s]
x1 = 0.051 | 844.579 ± 0.42 | 842.382 ± 0.42 | 840.182 ± 0.42 | 837.972 ± 0.43 | 1255.6 ± 2.2 | 1245.6 ± 2.2 | 1235.6 ± 2.2 | 1225.6 ± 2.2
x1 = 0.111 | 837.921 ± 0.43 | 835.701 ± 0.43 | 833.476 ± 0.44 | 831.247 ± 0.44 | 1241.2 ± 2.2 | 1230.9 ± 2.2 | 1220.7 ± 2.2 | 1210.5 ± 2.2
x1 = 0.199 | 827.849 ± 0.44 | 825.592 ± 0.45 | 823.333 ± 0.45 | 821.068 ± 0.45 | 1218.5 ± 2.2 | 1208.2 ± 2.2 | 1197.8 ± 2.2 | 1187.5 ± 2.2
x1 = 0.297 | 816.672 ± 0.46 | 814.375 ± 0.46 | 812.074 ± 0.47 | 809.766 ± 0.47 | 1193 ± 2.2 | 1182.6 ± 2.2 | 1172.2 ± 2.2 | 1161.8 ± 2.2
x1 = 0.394 | 805.171 ± 0.48 | 802.832 ± 0.48 | 800.49 ± 0.48 | 798.142 ± 0.49 | 1166.6 ± 2.2 | 1156.1 ± 2.2 | 1145.5 ± 2.2 | 1135 ± 2.2
x1 = 0.5 | 792.236 ± 0.5 | 789.848 ± 0.5 | 787.456 ± 0.5 | 785.055 ± 0.51 | 1136.9 ± 2.2 | 1126.2 ± 2.2 | 1115.5 ± 2.2 | 1104.9 ± 2.2
x1 = 0.591 | 780.907 ± 0.51 | 778.473 ± 0.52 | 776.037 ± 0.52 | 773.588 ± 0.53 | 1111.4 ± 2.2 | 1100.6 ± 2.2 | 1089.9 ± 2.2 | –
x1 = 0.7 | 767.085 ± 0.54 | 764.594 ± 0.54 | 762.097 ± 0.54 | 759.588 ± 0.55 | 1080.2 ± 2.2 | 1069.3 ± 2.2 | 1058.4 ± 2.2 | –
x1 = 0.799 | 753.909 ± 0.56 | 751.361 ± 0.56 | 748.806 ± 0.56 | 746.238 ± 0.57 | 1050.5 ± 2.2 | 1039.4 ± 2.2 | 1028.3 ± 2.2 | –
x1 = 0.898 | 740.58 ± 0.57 | 737.971 ± 0.58 | 735.351 ± 0.58 | 732.717 ± 0.59 | 1020.6 ± 2.2 | 1009.4 ± 2.2 | 998.27 ± 2.2 | –
x1 = 0.949 | 733.654 ± 0.59 | 731.009 ± 0.59 | 728.354 ± 0.59 | 725.685 ± 0.6 | 1004.7 ± 2.2 | 993.41 ± 2.2 | 982.13 ± 2.2 | –
x1 = 1 | 726.444 ± 0.58 | 723.763 ± 0.58 | 721.069 ± 0.59 | 718.357 ± 0.59 | 990.99 ± 2.2 | 979.62 ± 2.2 | 968.16 ± 2.2 | –
